Experimental findings from US11612606B2, “8-aminoisoquinoline compounds and uses thereof” (priority 2018, dated 2023) are described below.

Structures can show the parent of a compound that is named as a salt.

Chain of HPK full length, T165E S171E (Q92918 whole entry T165E/S171E, looked up): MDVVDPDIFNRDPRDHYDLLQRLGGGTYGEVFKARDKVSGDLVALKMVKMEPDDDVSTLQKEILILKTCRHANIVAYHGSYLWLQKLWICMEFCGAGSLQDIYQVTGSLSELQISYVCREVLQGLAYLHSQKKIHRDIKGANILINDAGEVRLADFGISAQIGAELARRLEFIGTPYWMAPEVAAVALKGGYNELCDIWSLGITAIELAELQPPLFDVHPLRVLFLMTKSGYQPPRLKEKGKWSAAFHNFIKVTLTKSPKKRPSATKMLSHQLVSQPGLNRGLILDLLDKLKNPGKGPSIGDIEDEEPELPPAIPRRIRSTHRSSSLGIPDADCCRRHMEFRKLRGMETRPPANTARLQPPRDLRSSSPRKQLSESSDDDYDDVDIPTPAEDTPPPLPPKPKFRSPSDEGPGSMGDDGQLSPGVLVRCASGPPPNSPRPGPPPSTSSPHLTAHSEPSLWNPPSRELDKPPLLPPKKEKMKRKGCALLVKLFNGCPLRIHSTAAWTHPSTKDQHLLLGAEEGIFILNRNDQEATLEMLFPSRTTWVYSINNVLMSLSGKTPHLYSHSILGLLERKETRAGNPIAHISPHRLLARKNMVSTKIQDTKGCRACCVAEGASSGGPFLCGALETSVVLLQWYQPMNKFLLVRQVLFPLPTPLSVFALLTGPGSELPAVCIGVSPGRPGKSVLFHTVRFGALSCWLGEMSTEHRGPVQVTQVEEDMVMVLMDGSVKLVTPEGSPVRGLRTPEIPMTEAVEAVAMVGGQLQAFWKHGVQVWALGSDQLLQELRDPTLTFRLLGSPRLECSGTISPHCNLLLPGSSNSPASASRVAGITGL

The first assay has as its target HPK full length, T165E S171E (Homo sapiens (Human), UniProt Q92918, S171E/T165E). Put plainly: HPK1-FL HTRF enzymatic assay ("HTRF"). The following applies: ATP 1 mM, read-out: HPK1 Ki. The format is biochemical. In short, it runs like this: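 HTRF detection of phosphorylated biotin-SLP-76 used Eu-anti-pSLP76 antibody and SA-XL665, read after 60 min. The kinase reaction ran 60 min at […], following a 30-min compound preincubation with the full-length enzyme.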
As for `CO[C@@H]1COCC[C@@H]1NC(=O)Nc1cc2cc(-c3cnc4c(c3C)NCCO4)c(F)c(N)c2cn1` (single isomer, unassigned) [Compound 750a], the Ki turned out to be 0.96 nM.
`Cc1c(-c2cc3cc(NC(=O)N[C@H]4CCC[C@H]4O)ncc3c(N)c2F)cnc2c1NCCO2` (relative stereo) [Compound 728a, 1-[8-Amino-7-fluoro-6-(8-methyl-2,3-dihydro-1H-pyrido[2,3-b][1,4]oxazin-7-yl)-3-isoquinolyl]-3-[(1S,2R)-2-hydroxycyclopentyl]urea]: the Ki was below 0.013 nM.
In the case of `CO[C@H]1COCC[C@@H]1OC(=O)Nc1cc2cc(-c3cnc4c(c3C)NCCO4)c(F)c(N)c2cn1` (single isomer, unassigned) [Compound 583a], the Ki amounted to 0.12 nM.
The same measure, in the same setting: then `Cc1c(-c2cc3cc(NC(=O)O[C@@H]4CCN(C5COC5)C[C@H]4F)ncc3c(N)c2F)cnc2c1NCCO2` (relative stereo) [Compound 445ab, (+1-)-trans-3-Fluoro-1-(oxetan-3-yl)piperidin-4-yl (8-amino-7-fluoro-6-(8-methyl-2,3-dihydro-1H-pyrido[2,3-b][1,4]oxazin-7-yl)isoquinolin-3-yl)carbamate], with below 0.013 nM; and `Cc1c(-c2cc3cc(NC(=O)O[C@H]4C[C@@H](O)C4)ncc3c(N)c2F)cnc2c1NC[C@@H]1C[C@H]21` (single isomer, unassigned) [Compound 584a], with 0.14 nM.
Consider `Cc1c(-c2cc3cc(NC(=O)O[C@H]4C[C@@H](O)C4)ncc3c(N)c2F)cnc2c1NCCC2` [Compound 553a, (1s,3s)-3-hydroxycyclobutyl (8-amino-7-fluoro-6-(4-methyl-5,6,7,8-tetrahydro-1,5-naphthyridin-3-yl)isoquinolin-3-yl)carbamate], for which the Ki was below 0.013 nM.
Consider `Cc1c(-c2cc3cc(NC(=O)OC4CN(S(=O)(=O)C5CC5)C4)ncc3c(N)c2F)cnc2c1NCCO2` [Compound 524, (1-Cyclopropylsulfonylazetidin-3-yl)-N-[8-amino-7-fluoro-6-(8-methyl-2,3-dihydro-1H-pyrido[2,3-b][1,4]oxazin-7-yl)-3-isoquinolyl]-carbamate hydrochloride], for which the Ki stood at 0.02 nM.
The same measure, in the same setting: then `Cc1c(-c2cc3cc(NC(=O)OC4CN(C(=O)[C@H]5C[C@@H]5F)C4)ncc3c(N)c2F)cnc2c1NCCC2` (single isomer, unassigned) [Compound 531a], with 0.055 nM; and `Cc1c(N)cncc1-c1cc2cc(NC(=O)O[C@H]3COC[C@@H]3C)ncc2c(N)c1F` (single isomer, unassigned) [Compound 544a], with 0.138 nM; and `Cc1c(-c2cc3cc(NC(=O)N[C@H]4C[C@]5(CCOC5)C4)ncc3c(N)c2F)cnc2c1NCCC2` [Compound 740a, 1-(8-Amino-7-fluoro-6-(4-methyl-5,6,7,8-tetrahydro-1,5-naphthyridin-3-yl)isoquinolin-3-yl)-3-((2s,4s)-6-oxaspiro[3.4]octan-2-yl)urea], with below 0.013 nM.
Turning to `Cc1c(-c2cc(N)c3cnc(NC(=O)O[C@H]4C[C@@H](C#N)C4)cc3c2)cnc2c1NCCO2` [Compound 557a, (1s,3s)-3-Cyanocyclobutyl (8-amino-6-(8-methyl-2,3-dihydro-1H-pyrido[2,3-b][1,4]oxazin-7-yl)isoquinolin-3-yl)carbamate hydrochloride], the Ki was below 0.013 nM.
Same read-out and setting: then `Cc1c(-c2cc3cc(NC(=O)N[C@@H]4CC[C@H]4C#N)ncc3c(N)c2F)cnc2c1NCCO2` (relative stereo) [Compound 712ab, 1-(8-Amino-7-fluoro-6-(8-methyl-2,3-dihydro-1H-pyrido[2,3-b][1,4]oxazin-7-yl)isoquinolin-3-yl)-3-(trans-2-cyanocyclobutyl)urea], with below 0.013 nM; and `CC[C@@H]1COC[C@H]1OC(=O)Nc1cc2cc(-c3cnc4c(c3C)NCCO4)c(F)c(N)c2cn1` (single isomer, unassigned) [Compound 515a], with 0.105 nM.
Take `Cc1c(-c2cc3cc(NC(=O)O[C@@H]4CCCNC4)ncc3c(N)c2F)cnc2c1NCCO2` (single isomer, unassigned) [Compound 408b]: the Ki is 0.069 nM.
Turning to `Cc1c(-c2cc3cc(NC(=O)N4CC(C)(O)C4)ncc3c(N)c2F)cnc2c1NCCO2` [Compound 754], the Ki stood at 0.205 nM.
Take `Cc1c(-c2cc3cc(NC(=O)O[C@H]4C[C@@H](C(F)F)C4)ncc3c(N)c2F)cnc2c1NCCO2` [Compound 577a, (1s,3s)-3-(difluoromethyl)cyclobutyl (8-amino-7-fluoro-6-(8-methyl-2,3-dihydro-1H-pyrido[2,3-b][1,4]oxazin-7-yl)isoquinolin-3-yl)carbamate]: the inhibition constant (Ki) came out at 0.015 nM.
Take `Cc1c(-c2cc3cc(NC(=O)O[C@@H]4CCOC4)ncc3c(N)c2F)cnc2c1C(C#N)CCO2` (stereo partly drawn) [Compound 562a, (R)-Tetrahydrofuran-3-yl (8-amino-6-(4-cyano-5-methyl-3,4-dihydro-2H-pyrano[2,3-b]pyridin-6-yl)-7-fluoroisoquinolin-3-yl)carbamate]: the Ki is 0.068 nM.
Take `Cc1c(-c2cc3cc(NC(=O)O[C@H]4COC[C@@H]4C)ncc3c(N)c2F)cnc2c1NC(=O)CO2` (single isomer, unassigned) [Compound 558a, hydrochloride]: the Ki was 0.9 nM.
`Cc1c(-c2cc3cc(NC(=O)OC(C)C)ncc3c(N)c2F)cnc2c1NCCO2` [Compound 436, Isopropyl (8-amino-7-fluoro-6-(8-methyl-2,3-dihydro-1H-pyrido[2,3-b][1,4]oxazin-7-yl)isoquinolin-3-yl)carbamate]: the Ki was found to be 0.014 nM.
Regarding `Cc1c(-c2cc3cc(NC(=O)O[C@H]4C[C@H]([C@@H](C)O)C4)ncc3c(N)c2F)cnc2c1NCCO2` (single isomer, unassigned) [Compound 573c], the Ki was 0.017 nM.
For `Cc1c(-c2cc3cc(NC(=O)N[C@H]4CCCOC4)ncc3c(N)c2F)cnc2c1NCCO2` (single isomer, unassigned) [Compound 711a], the Ki was below 0.013 nM.
For `CCc1c(-c2cc3cc(NC(=O)O[C@@H]4CC(=O)N(C)C4)ncc3c(N)c2F)cnc2c1NCCO2` (single isomer, unassigned) [Compound 444a], the Ki was below 0.013 nM.
Take `Cc1c(-c2cc3cc(NC(=O)OC4C5COCC4CN(CC(F)F)C5)ncc3c(N)c2F)cnc2c1NCCO2` (single isomer, unassigned) [Compound 507a]: the Ki is below 0.013 nM.
Take `Cc1c(-c2cc3cc(NC(=O)O[C@@H]4CCC5(CCN(C6COC6)CC5)C4)ncc3c(N)c2F)cnc2c1NCCO2` (single isomer, unassigned) [Compound 511a]: the Ki is below 0.013 nM.
With `Cc1c(-c2cc3cc(NC(=O)O[C@H](C)CO)ncc3c(N)c2F)cnc2c1NCCO2` (single isomer, unassigned) [Compound 530a], the Ki amounted to 0.26 nM.
Take `Cc1c(-c2cc3cc(NC(=O)O[C@H]4Cc5nccn5C4)ncc3c(N)c2F)cnc2c1NCCO2` (single isomer, unassigned) [Compound 504b]: the inhibition constant (Ki) was 0.76 nM.
As for `Cc1c(-c2cc3cc(NC(=O)O[C@H]4CC[C@H]4C)ncc3c(N)c2F)cnc2c1NCCO2` [Compound 559d, [(1S,2R)-2-methylcyclobutyl]N-[8-amino-7-fluoro-6-(8-methyl-2,3-dihydro-1H-pyrido[2,3-b][1,4]oxazin-7-yl)-3-isoquinolyl]carbamate], the Ki is below 0.013 nM.
With `Cc1c(-c2cc3cc(NC(=O)O[C@@H]4CO[C@@]5(CCN(C)C5)C4)ncc3c(N)c2F)cnc2c1NCCO2` (single isomer, unassigned) [Compound 467a], the Ki is 0.031 nM.
In the case of `Cc1c(-c2cc3cc(NC(=O)O[C@@H]4Cc5nccn5C4)ncc3c(N)c2F)cnc2c1NCCO2` (single isomer, unassigned) [Compound 504a], the Ki was below 0.013 nM.
Consider `Cc1c(-c2cc3cc(NC(=O)OC4CCNCC4)ncc3c(N)c2F)cnc2c1NCCO2` [Compound 404, Piperidin-4-yl (8-amino-7-fluoro-6-(8-methyl-2,3-dihydro-1H-pyrido[2,3-b][1,4]oxazin-7-yl)isoquinolin-3-yl)carbamate], for which the Ki was 0.03 nM.
Take `Cc1c(-c2cc3cc(NC(=O)NC4CC4)ncc3c(N)c2F)cnc2c1NCCO2` [Compound 702, 1-(8-Amino-7-fluoro-6-(8-methyl-2,3-dihydro-1H-pyrido[2,3-b][1,4]oxazin-7-yl)isoquinolin-3-yl)-3-cyclopropylurea]: the Ki is below 0.013 nM.
On to `Cc1c(-c2cc3cc(NC(=O)N[C@@H]4CCOC4)ncc3c(N)c2F)cnc2c1NCCC2` [Compound 719a, (R)-1-(8-Amino-7-fluoro-6-(4-methyl-5,6,7,8-tetrahydro-1,5-naphthyridin-3-yl)isoquinolin-3-yl)-3-(tetrahydrofuran-3-yl)urea], for which the Ki was determined as 0.016 nM.

Still in this assay, the particulars now being: HPK1 Ki, ATP 1 mM.
Compound `Cc1c(-c2cc3cc(NC(=O)N[C@H]4CCOC[C@H]4F)ncc3c(N)c2F)cnc2c1NCCO2` (single isomer, unassigned) [Compound 747a] returned a Ki below 0.013 nM.
`CO[C@@H]1CC[C@@H](NC(=O)Nc2cc3cc(-c4cnc5c(c4C)NCCO5)c(F)c(N)c3cn2)C1` [Compound 730a, 1-(8-amino-7-fluoro-6-(8-methyl-2,3-dihydro-1H-pyrido[2,3-b][1,4]oxazin-7-yl)isoquinolin-3-yl)-3-((1R,3R)-3-methoxycyclopentyl)urea]: the Ki was below 0.013 nM.
On to `Cc1c(-c2cc3cc(NC(=O)O[C@H]4CC[C@@H]4O)ncc3c(N)c2F)cnc2c1NCCO2` [Compound 542c, (1S,2S)-2-Hydroxycyclobutyl (8-amino-7-fluoro-6-(8-methyl-2,3-dihydro-1H-pyrido[2,3-b][1,4]oxazin-7-yl)isoquinolin-3-yl)carbamate hydrochloride], for which the affinity corresponds to a Ki of 0.021 nM.
The compound `Cc1c(-c2cc3cc(NC(=O)O[C@@H]4CO[C@H]5COC[C@H]54)ncc3c(N)c2F)cnc2c1NCCO2` [Compound 563a, (3S,3aR,6aR)-Hexahydrofuro[3,4-b]furan-3-yl (8-amino-7-fluoro-6-(8-methyl-2,3-dihydro-1H-pyrido[2,3-b][1,4]oxazin-7-yl)isoquinolin-3-yl)carbamate] registered a Ki of 0.219 nM.
